# Assay results published in patent US20260262643A1, “HERBICIDAL BENZOXAZINES” (FMC CORPORATION, priority 2022, published 2026).
# Tests used:
# barnyardgrass [1] = experiment: Test C preemergence; assay type: in vivo, Echinochloa crusgalli; details: 0 to 100 scale (0 no effect, 100 complete control)
# In short: (§1)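 Pre: seeds in loam/sand, directed soil spray. Post: 1–2 leaf plants, 2–10 cm. Cmpd in non-phytotoxic solvent + surfactant. Greenhouse 10 d; visual rating vs untreated, 0 = none, 100 = complete control.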
# blackgrass [2] = experiment: Test C preemergence; assay type: in vivo, Alopecurus myosuroides; details: 0 to 100 scale (0 no effect, 100 complete control)
# In short: as §1
# corn [3] = experiment: Test C preemergence; assay type: in vivo, Zea mays; details: 0 to 100 scale (0 no effect, 100 complete control)
# In short: as §1
# green foxtail [4] = experiment: Test C preemergence; assay type: in vivo, Setaria viridis; details: 0 to 100 scale (0 no effect, 100 complete control)
# In short: as §1
# kochia [5] = experiment: Test C preemergence; assay type: in vivo, Bassia scoparia; details: 0 to 100 scale (0 no effect, 100 complete control)
# In short: as §1
# oat, wild [6] = experiment: Test C preemergence; assay type: in vivo, Avena fatua; details: 0 to 100 scale (0 no effect, 100 complete control)
# In short: as §1
# pigweed, palmer [7] = experiment: Test C preemergence; assay type: in vivo, Amaranthus palmeri; details: 0 to 100 scale (0 no effect, 100 complete control)
# In short: as §1
# ragweed [8] = experiment: Test C preemergence; assay type: in vivo, Ambrosia artemisiifolia; details: 0 to 100 scale (0 no effect, 100 complete control)
# In short: as §1
# ryegrass, Italian [9] = experiment: Test C preemergence; assay type: in vivo, Lolium multiflorum; details: 0 to 100 scale (0 no effect, 100 complete control)
# In short: as §1
# soybean [10] = experiment: Test C preemergence; assay type: in vivo, Glycine max; details: 0 to 100 scale (0 no effect, 100 complete control)
# In short: as §1
# wheat [11] = experiment: Test C preemergence; assay type: in vivo, Triticum aestivum; details: 0 to 100 scale (0 no effect, 100 complete control)
# In short: as §1
# barnyardgrass [12] = experiment: Test C postemergence; assay type: in vivo, Echinochloa crusgalli; details: 10 days
# In short: as §1
# blackgrass [13] = experiment: Test C postemergence; assay type: in vivo, Alopecurus myosuroides; details: 10 days
# In short: as §1
# corn [14] = experiment: Test C postemergence; assay type: in vivo, Zea mays; details: 10 days
# In short: as §1
# green foxtail [15] = experiment: Test C postemergence; assay type: in vivo, Setaria viridis; details: 10 days
# In short: as §1
# kochia [16] = experiment: Test C postemergence; assay type: in vivo, Bassia scoparia; details: 10 days
# In short: as §1
# oat, wild [17] = experiment: Test C postemergence; assay type: in vivo, Avena fatua; details: 10 days
# In short: as §1
# pigweed, palmer [18] = experiment: Test C postemergence; assay type: in vivo, Amaranthus palmeri; details: 10 days
# In short: as §1
# ragweed [19] = experiment: Test C postemergence; assay type: in vivo, Ambrosia artemisiifolia; details: 10 days
# In short: as §1
# ryegrass, Italian [20] = experiment: Test C postemergence; assay type: in vivo, Lolium multiflorum; details: 10 days
# In short: as §1
# soybean [21] = experiment: Test C postemergence; assay type: in vivo, Glycine max; details: 10 days
# In short: as §1
# wheat [22] = experiment: Test C postemergence; assay type: in vivo, Triticum aestivum; details: 10 days
# In short: as §1
# galium = experiment: Test C postemergence; assay type: in vivo, Galium aparine; details: 10 days
# In short: as §1
# horseweed = experiment: Test C postemergence; assay type: in vivo, Erigeron canadensis; details: 10 days
# In short: as §1
# barnyardgrass [23] = experiment: Test D flooded paddy test; assay type: in vivo, Echinochloa crus-galli; details: 250 g ai/ha, applied to paddy water, visual rating after 13 to 14 days, scale 0 to 100 (0 no effect, 100 complete control)
# In short: (§2)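 Post-flood water application at the 2-leaf stage; 3 cm flood depth kept constant; visual control rating 0–100 after 13–14 days greenhouse growth.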
# ducksalad = experiment: Test D flooded paddy test; assay type: in vivo, Heteranthera limosa; details: 250 g ai/ha, applied to paddy water, visual rating after 13 to 14 days, scale 0 to 100 (0 no effect, 100 complete control)
# In short: as §2
# rice = experiment: Test D flooded paddy test; assay type: in vivo, Oryza sativa; details: 250 g ai/ha, applied to paddy water, visual rating after 13 to 14 days, scale 0 to 100 (0 no effect, 100 complete control)
# In short: as §2
# sedge, umbrella = experiment: Test D flooded paddy test; assay type: in vivo, Cyperus difformis; details: 250 g ai/ha, applied to paddy water, visual rating after 13 to 14 days, scale 0 to 100 (0 no effect, 100 complete control)
# In short: as §2
# [24] = Preemergence, 500 g ai/ha, visual rating after 10 days
# [25] = Test C, preemergence, 125 g ai/ha
# [26] = 125 g ai/ha, postemergence, 0 to 100 scale, 0 no effect, 100 complete control
# [27] = Postemergence, 500 g ai/ha, visual 0 to 100 scale (0 no effect, 100 complete control)
structure (smiles),measurement,setting,value
"Cc1ccc(-n2cnc(C(C)(C)C)n2)cc1C(=O)N1CC(C(F)(F)F)Oc2c(Cl)cccc21 (single isomer, unassigned) [Compound 192]","Plant response rating, Barnyardgrass",barnyardgrass [1]; [24],90
same,Barnyardgrass plant response rating,barnyardgrass [1]; [25],60
same,"Plant response rating, Blackgrass",blackgrass [2]; [24],80
same,Blackgrass plant response rating,blackgrass [2]; [25],70
same,"Plant response rating, Corn",corn [3]; [24],20
same,Corn plant response rating,corn [3]; [25],20
same,"Plant response rating, Foxtail, Green",green foxtail [4]; [24],100
same,"Foxtail, Green plant response rating",green foxtail [4]; [25],100
same,"Plant response rating, Kochia",kochia [5]; [24],100
same,Kochia plant response rating,kochia [5]; [25],60
same,"Plant response rating, Oat, Wild","oat, wild [6]; [24]",90
same,"Oat, Wild plant response rating","oat, wild [6]; [25]",40
same,"Plant response rating, Pigweed, Palmer","pigweed, palmer [7]; [24]",100
same,"Pigweed, Palmer plant response rating","pigweed, palmer [7]; [25]",90
same,"Plant response rating, Ragweed",ragweed [8]; [24],80
same,Ragweed plant response rating,ragweed [8]; [25],10
same,"Plant response rating, Ryegrass, Italian","ryegrass, Italian [9]; [24]",90
same,"Ryegrass, Italian plant response rating","ryegrass, Italian [9]; [25]",90
same,"Plant response rating, Soybean",soybean [10]; [24],90
same,Soybean plant response rating,soybean [10]; [25],30
same,"Plant response rating, Wheat",wheat [11]; [24],30
same,Wheat plant response rating,wheat [11]; [25],0
same,"Plant response rating, Barnyardgrass",barnyardgrass [12]; [26],20
same,"Plant response rating, Barnyardgrass",barnyardgrass [12]; [27],50
same,"Plant response rating, Blackgrass",blackgrass [13]; [26],30
same,"Plant response rating, Blackgrass",blackgrass [13]; [27],30
same,"Plant response rating, Corn",corn [14]; [26],10
same,"Plant response rating, Corn",corn [14]; [27],20
same,"Plant response rating, Foxtail, Green",green foxtail [15]; [26],10
same,"Plant response rating, Foxtail, Green",green foxtail [15]; [27],80
same,"Plant response rating, Kochia",kochia [16]; [26],80
same,"Plant response rating, Kochia",kochia [16]; [27],100
same,"Plant response rating, Oat, Wild","oat, wild [17]; [26]",20
same,"Plant response rating, Oat, Wild","oat, wild [17]; [27]",50
same,"Plant response rating, Pigweed, Palmer","pigweed, palmer [18]; [26]",90
same,"Plant response rating, Pigweed, Palmer","pigweed, palmer [18]; [27]",100
same,"Plant response rating, Ragweed",ragweed [19]; [26],90
same,"Plant response rating, Ragweed",ragweed [19]; [27],100
same,"Plant response rating, Ryegrass, Italian","ryegrass, Italian [20]; [26]",40
same,"Plant response rating, Ryegrass, Italian","ryegrass, Italian [20]; [27]",50
same,"Plant response rating, Soybean",soybean [21]; [26],100
same,"Plant response rating, Soybean",soybean [21]; [27],100
same,"Plant response rating, Wheat",wheat [22]; [26],20
same,"Plant response rating, Wheat",wheat [22]; [27],20
same,"Plant response rating, Galium",galium; [26],100
same,"Plant response rating, Galium",galium; [27],100
same,"Plant response rating, Horseweed",horseweed; [26],0
same,"Plant response rating, Horseweed",horseweed; [27],30
same,"Plant response rating, Barnyardgrass (Flood)",barnyardgrass [23],0
same,"Plant response rating, Ducksalad (Flood)",ducksalad,0
same,"Plant response rating, Rice (Flood)",rice,0
same,"Plant response rating, Sedge, Umbrella (Flood)","sedge, umbrella",0
